Tested on: yeast genes (level of expressed mRNA)
Assay: DNA chip analysis of expressed mRNA of yeast genes after 2 h culture with a toxic chemical substance
Assay type: cell-based, Saccharomyces cerevisiae S288C
Conditions: for The level of expressed mRNA in the presence of chemical substance/ (ratio to absence of chemical substance): stress protein genes, DNA chip
Description: Yeast (Saccharomyces cerevtisiae S288C (α SUC2mal mel gap2 CUP1)) were cultured at 25° C. on YPD medium (yeast extract 1%, polypepton 2%, glucose 2%). One of toxic chemical substances was added to the cell at logarithmic growth phase, and the cell was further cultured for two hours. Cell was cultured without any chemical substance in the same condition, and was used as control. Concentrations of the chemical substances were defined to inhibit the growth of the yeast but not lead to death.
After the completion of cultivation, the culture was centrifuged to collect the cells. To the cells, sodium acetate buffer (50 mM sodium acetate, 10 mM EDTA, 1% SDS) was added, and the mixture was shaken at 65° C. for five minutes, followed by returning to room temperature, and obtaining the supernatant, which procedure was repeated two times. To the supernatant, ½ amount of a solution of phenol/chloroform was added, and the mixture was centrifuged to give a supernatant, which was added with an equal amount of chloroform, and the mixture was centrifuged to give a supernatant. To the supernatant, an equal amount of isopropanol containing 0.3 M sodium acetate was added, and the mixture was allowed to stand at room temperature for 30 minutes, after which the mixture was centrifuged to give a sediment of the whole RNAs. Seventy % ethanol was added to the sediment, and the mixture was again centrifuged to give a sediment, which was then dried and dissolved in water. mRNA was isolated from the whole RNAs as followings. In view of the fact that a poly A chain is attached to the 3′ terminus of mRNA, a polynucleotide having a poly T structure which was immobilized on the surface of latex beads was used to trap the mRNA, and then the mRNA was washed and eluted with spine column (Oligotex-dT30<Super>mRNA Purification Kit, Takara). Reverse transcription of the mRNA was conducted with a reverse transcriptase (Super Script II Reverse Transcriptase; catalogue No. 18064-014, GibcoBRL) using fluorescence-labeled nucleotides to give cDNAs that were introduced with Cy3-dUTP or Cy5-dUTP during the reverse transcription.
The labeled cDNAs were dissolved in TE buffer (10 mM Tris-HCl/1 mM EDTA, pH8.0), and the solution was dropped on the DNA chip containing the whole genes of yeast (DNA Chip Research Inc. Japan) so that the cDNAs were hybridized on the DNA chip at 65° C. for over 12 hours. The fluoresces intensity of the DNA chip was read with a scanner, and the ratio relative to the fluorescence intensity resulting from the absence of chemical substance was estimated as the following, which is shown in Tables 1 to 9: [formula]
In the Tables, “Intensity” indicated in the rightmost column is a value of the level of expressed mRNA of each gene in control cells as divided by the average level of the expressions of the whole genes.

SMILES: C[S+](C)[O-] [(15), dimethylsulfoxide]
- The level of expressed mRNA in the presence of chemical substance/The level of expressed mRNA in the absence of chemical substance (yeast gene YJL073W): 2.6
- The level of expressed mRNA in the presence of chemical substance/The level of expressed mRNA in the absence of chemical substance (yeast gene YJL089W): 6.4
- The level of expressed mRNA in the presence of chemical substance/ (ratio to absence), gene YJL096W (yeast gene YJL096W, mitochondria-located protein genes, 2 h culture with chemical): 1.0
- The level of expressed mRNA in the presence of chemical substance/The level of expressed mRNA in the absence of chemical substance (yeast gene YJL116C): 1.0
- The level of expressed mRNA in the presence of chemical substance/ (ratio to absence of chemical substance) (yeast gene YJL158C): 1.7
- The level of expressed mRNA in the presence of chemical substance/ (in its absence), gene YJL167W (yeast gene YJL167W, ratio of DNA chip fluorescence intensity to that without chemical substance): 1.6
- The level of expressed mRNA in the presence of chemical substance/ (ratio to absence), gene YJL180C (yeast gene YJL180C, mitochondria-located protein genes, 2 h culture with chemical): 0.6
- The level of expressed mRNA in the presence of chemical substance/ (in its absence), gene YJL216C (yeast gene YJL216C, ratio of DNA chip fluorescence intensity to that without chemical substance): 1.2
- The level of expressed mRNA in the presence of chemical substance/The level of expressed mRNA in the absence of chemical substance (yeast gene YJR004C): 3.2
- The level of expressed mRNA in the presence of chemical substance/The level of expressed mRNA in the absence of chemical substance (yeast gene YJR086W): 2.0
- The level of expressed mRNA in the presence of chemical substance/ (ratio to absence of chemical substance) (yeast gene YJR090C): 1.6
- The level of expressed mRNA in the presence of chemical substance/The level of expressed mRNA in the absence of chemical substance (yeast gene YKL008C): 1.3
- The level of expressed mRNA in the presence of chemical substance/The level of expressed mRNA in the absence of chemical substance (yeast gene YKL013C): 1.2
- The level of expressed mRNA in the presence of chemical substance/The level of expressed mRNA in the absence of chemical substance (yeast gene YKL039W): 3.1
- The level of expressed mRNA in the presence of chemical substance/The level of expressed mRNA in the absence of chemical substance (yeast gene YKL041W): 1.0
- The level of expressed mRNA in the presence of chemical substance/The level of expressed mRNA in the absence of chemical substance (yeast gene YKL096W): 2.3
- The level of expressed mRNA in the presence of chemical substance/The level of expressed mRNA in the absence of chemical substance (yeast gene YKL139W): 1.0
- The level of expressed mRNA in the presence of chemical substance/ (ratio to absence of chemical substance) (yeast gene YKL164C): 1.2
- The level of expressed mRNA in the presence of chemical substance/The level of expressed mRNA in the absence of chemical substance (yeast gene YKL165C): 2.1
- The level of expressed mRNA in the presence of chemical substance/The level of expressed mRNA in the absence of chemical substance (yeast gene YKL193C): 1.2
- The level of expressed mRNA in the presence of chemical substance/ (in its absence), gene YKR009C (yeast gene YKR009C, ratio of DNA chip fluorescence intensity to that without chemical substance): 1.0
- The level of expressed mRNA in the presence of chemical substance/The level of expressed mRNA in the absence of chemical substance (yeast gene YKR014C): 1.4
- The level of expressed mRNA in the presence of chemical substance/ (in its absence), gene YKR034W (yeast gene YKR034W, ratio of DNA chip fluorescence intensity to that without chemical substance): 1.7
- The level of expressed mRNA in the presence of chemical substance/ (ratio to absence of chemical substance) (yeast gene YKR053C): 0.3
- The level of expressed mRNA in the presence of chemical substance/ in its absence, gene YKR058W (yeast gene YKR058W, energy system protein genes, 2 h culture with the chemical, ratio to control without chemical): 0.5
- The level of expressed mRNA in the presence of chemical substance/ (in its absence), gene YLR006C (yeast gene YLR006C, ratio of DNA chip fluorescence intensity to that without chemical substance): 0.9
- The level of expressed mRNA in the presence of chemical substance/ (ratio to absence of chemical substance) (yeast gene YLR006C): 0.9
- The level of expressed mRNA in the presence of chemical substance/The level of expressed mRNA in the absence of chemical substance (yeast gene YLR093C): 0.9
- The level of expressed mRNA in the presence of chemical substance/The level of expressed mRNA in the absence of chemical substance (yeast gene YLR120C): 2.7
- The level of expressed mRNA in the presence of chemical substance/The level of expressed mRNA in the absence of chemical substance (yeast gene YLR136C): 2.1
- The level of expressed mRNA in the presence of chemical substance/The level of expressed mRNA in the absence of chemical substance (yeast gene YLR178C): 2.3
- The level of expressed mRNA in the presence of chemical substance/The level of expressed mRNA in the absence of chemical substance (yeast gene YLR250W): 2.6
- The level of expressed mRNA in the presence of chemical substance/ in its absence, gene YLR295C (yeast gene YLR295C, energy system protein genes, 2 h culture with the chemical, ratio to control without chemical): 0.5
- The level of expressed mRNA in the presence of chemical substance/ (ratio to absence), gene YLR295C (yeast gene YLR295C, mitochondria-located protein genes, 2 h culture with chemical): 0.5
- The level of expressed mRNA in the presence of chemical substance/The level of expressed mRNA in the absence of chemical substance (yeast gene YLR327C): 0.8
- The level of expressed mRNA in the presence of chemical substance/ (in its absence), gene YLR351C (yeast gene YLR351C, ratio of DNA chip fluorescence intensity to that without chemical substance): 1.2
- The level of expressed mRNA in the presence of chemical substance/The level of expressed mRNA in the absence of chemical substance (yeast gene YLR356W): 2.8
- The level of expressed mRNA in the presence of chemical substance/The level of expressed mRNA in the absence of chemical substance (yeast gene YLR362W): 1.3
- The level of expressed mRNA in the presence of chemical substance/ (in its absence), gene YLR375W (yeast gene YLR375W, ratio of DNA chip fluorescence intensity to that without chemical substance): 1.3
- The level of expressed mRNA in the presence of chemical substance/The level of expressed mRNA in the absence of chemical substance (yeast gene YLR391W): 3.9
- The level of expressed mRNA in the presence of chemical substance/The level of expressed mRNA in the absence of chemical substance (yeast gene YLR429W): 1.5
- The level of expressed mRNA in the presence of chemical substance/ in its absence, gene YML129C (yeast gene YML129C, energy system protein genes, 2 h culture with the chemical, ratio to control without chemical): 1.1
- The level of expressed mRNA in the presence of chemical substance/ (ratio to absence), gene YML129C (yeast gene YML129C, mitochondria-located protein genes, 2 h culture with chemical): 1.1
- The level of expressed mRNA in the presence of chemical substance/The level of expressed mRNA in the absence of chemical substance (yeast gene YMR004W): 1.3
- The level of expressed mRNA in the presence of chemical substance/ (ratio to absence), gene YMR023C (yeast gene YMR023C, mitochondria-located protein genes, 2 h culture with chemical): 0.7
- The level of expressed mRNA in the presence of chemical substance/The level of expressed mRNA in the absence of chemical substance (yeast gene YMR094W): 6.6
- The level of expressed mRNA in the presence of chemical substance/The level of expressed mRNA in the absence of chemical substance (yeast gene YMR104C): 2.5
- The level of expressed mRNA in the presence of chemical substance/ (ratio to absence of chemical substance) (yeast gene YMR186W): 1.3
- The level of expressed mRNA in the presence of chemical substance/The level of expressed mRNA in the absence of chemical substance (yeast gene YMR219W): 1.7
- The level of expressed mRNA in the presence of chemical substance/The level of expressed mRNA in the absence of chemical substance (yeast gene YMR226C): 2.0
- The level of expressed mRNA in the presence of chemical substance/ in its absence, gene YMR267W (yeast gene YMR267W, energy system protein genes, 2 h culture with the chemical, ratio to control without chemical): 0.9
- The level of expressed mRNA in the presence of chemical substance/ (ratio to absence), gene YMR267W (yeast gene YMR267W, mitochondria-located protein genes, 2 h culture with chemical): 0.9
- The level of expressed mRNA in the presence of chemical substance/ in its absence, gene YMR267W (yeast gene YMR267W, ratio of DNA chip fluorescence intensity to that without chemical substance): 0.9
- The level of expressed mRNA in the presence of chemical substance/The level of expressed mRNA in the absence of chemical substance (yeast gene YMR275C): 1.7
- The level of expressed mRNA in the presence of chemical substance/The level of expressed mRNA in the absence of chemical substance (yeast gene YMR276W): 3.3
- The level of expressed mRNA in the presence of chemical substance/ (in its absence), gene YMR278W (yeast gene YMR278W, ratio of DNA chip fluorescence intensity to that without chemical substance): 1.8
- The level of expressed mRNA in the presence of chemical substance/ (in its absence), gene YMR293C (yeast gene YMR293C, ratio of DNA chip fluorescence intensity to that without chemical substance): 0.7

From patent US20050112573A1, “Method of detecting toxic substance” (priority 2001, published 2005)
